Measurements: ChEMBL document CHEMBL1201862, “PubChem BioAssay data set” (2004)
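Protocol summary: plate cells (96-well), add compound at 5 concentrations, incubate 48 h, interpolate endpoints linearly. Here, GI50 denotes the concentration required for 50% inhibition of growth.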 Calls of active or inactive are those of the source. Cut-off read from the data, not from the text of the source: active = GI50 up to about 1.1 µM and inactive = higher.

What was measured:
Experiment in all cases: inhibition of tumour cell growth, NCI panel, 48 h
OVCAR-5 = test system: OVCAR-5
Malme-3M = test system: Malme-3M
SK-MEL-2 = test system: SK-MEL-2
OVCAR-4 = test system: OVCAR-4
U-251 = test system: U-251
M19-MEL = test system: M19-MEL
SN12C = test system: SN12C
HL-60 = test system: HL-60
XF498 = test system: XF498
HOP-18 = test system: HOP-18
NCI/ADR-RES = test system: NCI/ADR-RES
SK-MEL-5 = test system: SK-MEL-5
COLO 205 = test system: COLO 205
NCI-H23 = test system: NCI-H23
CCRF-CEM = test system: CCRF-CEM
KM12 = test system: KM12
HT-29 = test system: HT-29
SNB-78 = test system: SNB-78
MCF7 = test system: MCF7
CAKI-1 = test system: CAKI-1
K562 = test system: K562
A549 = test system: A549
SF-295 = test system: SF-295
OVCAR-3 = test system: OVCAR-3
SK-OV-3 = test system: SK-OV-3
SNB-19 = test system: SNB-19
SK-MEL-28 = test system: SK-MEL-28
UACC-257 = test system: UACC-257
NCI-H226 = test system: NCI-H226
EKVX = test system: EKVX
DMS-114 = test system: DMS-114
HOP-62 = test system: HOP-62
UO-31 = test system: UO-31
RXF 393 = test system: RXF 393
OVCAR-8 = test system: OVCAR-8
DLD-1 = test system: DLD-1
A498 = test system: A498
LOX IMVI = test system: LOX IMVI
HCC 2998 = test system: HCC 2998
RPMI-8226 = test system: RPMI-8226
UACC-62 = test system: UACC-62
HCT-15 = test system: HCT-15
KM-20L2 = test system: KM-20L2
NCI-H522 = test system: NCI-H522
HOP-92 = test system: HOP-92
SF-268 = test system: SF-268
MOLT-4 = test system: MOLT-4
SNB-75 = test system: SNB-75
HCT-116 = test system: HCT-116
NCI-H460 = test system: NCI-H460
DMS-273 = test system: DMS-273
SW-620 = test system: SW-620
SF-539 = test system: SF-539
IGROV-1 = test system: IGROV-1

CCN(CC)c1c(C)c(C(=O)OC)nn1-c1ccccc1
GI50 (OVCAR-5): > 100 µM (inactive) | GI50 (Malme-3M): > 96.6 µM (inactive) | GI50 (SK-MEL-2): > 89.7 µM (inactive) | GI50 (OVCAR-4): > 100 µM (inactive) | GI50 (U-251): 61.1 µM (inactive) | GI50 (M19-MEL): > 66.2 µM (inactive) | GI50 (SN12C): > 100 µM (inactive) | GI50 (HL-60): 35.2 µM (inactive) | GI50 (XF498): > 34.5 µM (inactive) | GI50 (HOP-18): > 100 µM (inactive) | GI50 (NCI/ADR-RES): 36.4 µM (inactive) | GI50 (SK-MEL-5): 32.8 µM (inactive) | GI50 (COLO 205): > 100 µM (inactive) | GI50 (NCI-H23): 33.6 µM (inactive) | GI50 (CCRF-CEM): 63.1 µM (inactive) | GI50 (KM12): > 85.3 µM (inactive) | GI50 (HT-29): 70.3 µM (inactive) | GI50 (SNB-78): > 100 µM (inactive) | GI50 (MCF7): 80.4 µM (inactive) | GI50 (CAKI-1): > 44.7 µM (inactive) | GI50 (K562): 36.9 µM (inactive) | GI50 (A549): 97.5 µM (inactive) | GI50 (SF-295): > 83.6 µM (inactive) | GI50 (OVCAR-3): 60.5 µM (inactive) | GI50 (SK-OV-3): > 100 µM (inactive) | GI50 (SNB-19): > 72.1 µM (inactive) | GI50 (SK-MEL-28): > 100 µM (inactive) | GI50 (UACC-257): 31.2 µM (inactive) | GI50 (NCI-H226): > 77.1 µM (inactive) | GI50 (EKVX): > 81.1 µM (inactive) | GI50 (DMS-114): 38.7 µM (inactive) | GI50 (HOP-62): > 100 µM (inactive) | GI50 (UO-31): 33 µM (inactive) | GI50 (RXF 393): 33.3 µM (inactive) | GI50 (OVCAR-8): > 100 µM (inactive) | GI50 (DLD-1): > 100 µM (inactive) | GI50 (A498): > 85.1 µM (inactive) | GI50 (LOX IMVI): 86.5 µM (inactive) | GI50 (HCC 2998): > 43.7 µM (inactive) | GI50 (RPMI-8226): 23.2 µM (inactive) | GI50 (UACC-62): > 100 µM (inactive) | GI50 (HCT-15): > 100 µM | GI50 (KM-20L2): > 100 µM (inactive) | GI50 (NCI-H522): 63.8 µM (inactive) | GI50 (HOP-92): 71 µM (inactive) | GI50 (SF-268): 81.3 µM (inactive) | GI50 (MOLT-4): 43.1 µM (inactive) | GI50 (SNB-75): > 100 µM (inactive) | GI50 (HCT-116): 89.1 µM (inactive) | GI50 (NCI-H460): > 100 µM (inactive) | GI50 (DMS-273): > 100 µM (inactive) | GI50 (SW-620): > 100 µM (inactive) | GI50 (SF-539): > 100 µM (inactive) | GI50 (IGROV-1): > 100 µM (inactive)
